Assay results reported in the supplement of paper PMC4862054.
Values joined by “and” are separate entries in the source; they are usually repeats but may differ in a detail not shown here. Equal values may be shown once.

Columns and labels:
Details in all cases: incubation time: 72 h
BT-474 [1] = assay: normalised response (% of control), CellTox Green; higher = less cell death (100 = DMSO, 0 = benzethonium chloride kill control)
Procedure, shortened: (§1)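 Breast cancer cell lines were exposed for 72 h in 384-well plates to compound at 5 concentrations, 10-fold apart, covering a 10,000-fold range fixed for each compound. Plates were read for CellTox Green fluorescence and CellTiter-Glo luminescence and normalised to 0.1 % DMSO (100) and a positive kill control (0). Each value is the normalised signal at one concentration of the series.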

BT-549 [2] = assay: as above
Procedure, shortened: as §1

CAL-120 [3] = assay: as above
Procedure, shortened: as §1

CAL-148 [4] = assay: as above
Procedure, shortened: as §1

CAL-51 [5] = assay: as above
Procedure, shortened: as §1

CAL-85-1 [6] = assay: as above
Procedure, shortened: as §1

DU-4475 [7] = assay: as above
Procedure, shortened: as §1

HCC1143 [8] = assay: as above
Procedure, shortened: as §1

HCC1599 [9] = assay: as above
Procedure, shortened: as §1

HCC1937 [10] = assay: as above
Procedure, shortened: as §1

HDQ-P1 [11] = assay: as above
Procedure, shortened: as §1

Hs578T [12] = assay: as above
Procedure, shortened: as §1

MCF-10A [13] = assay: as above
Procedure, shortened: as §1

MDA-MB-231 [14] = assay: as above
Procedure, shortened: as §1

MDA-MB-436 [15] = assay: as above
Procedure, shortened: as §1

MDA-MB-453 [16] = assay: as above
Procedure, shortened: as §1

MDA-MB-468 [17] = assay: as above
Procedure, shortened: as §1

MFM-223 [18] = assay: as above
Procedure, shortened: as §1

BT-474 [19] = assay: normalised response (% of control), CellTiter-Glo; higher = more viable cells (100 = DMSO, 0 = benzethonium chloride kill control)
Experimental: (§2)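 DSRT, 72 h incubation, CellTox Green / CellTiter-Glo readout. Signal is normalised to DMSO and benzethonium chloride controls. Value is the normalised response at the highest dose.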

BT-549 [20] = assay: as above
Experimental: as §2

CAL-120 [21] = assay: as above
Experimental: as §2

CAL-148 [22] = assay: as above
Experimental: as §2

CAL-51 [23] = assay: as above
Experimental: as §2

CAL-85-1 [24] = assay: as above
Experimental: as §2

DU-4475 [25] = assay: as above
Experimental: as §2

HCC1143 [26] = assay: as above
Experimental: as §2

HCC1599 [27] = assay: as above
Experimental: as §2

HCC1937 [28] = assay: as above
Experimental: as §2

HDQ-P1 [29] = assay: as above
Experimental: as §2

Hs578T [30] = assay: as above
Experimental: as §2

MCF-10A [31] = assay: as above
Experimental: as §2

MDA-MB-231 [32] = assay: as above
Experimental: as §2

MDA-MB-436 [33] = assay: as above
Experimental: as §2

MDA-MB-453 [34] = assay: as above
Experimental: as §2

MDA-MB-468 [35] = assay: as above
Experimental: as §2

MFM-223 [36] = assay: as above
Experimental: as §2

SK-BR-3 = assay: as above
Experimental: as §2

CAL-148 [37] = assay: normalised viability (% of control), CellTiter-Blue; higher = more viable cells (about 100 = DMSO control)
Experimental: (§3)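 DSRT, CellTiter-Blue viability, 72 h incubation. Signal is normalised to DMSO and benzethonium chloride controls. Value is the normalised response at dose 6.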

CAL-51 [38] = assay: as above
Experimental: as §3

CAL-85-1 [39] = assay: as above
Experimental: as §3

DU-4475 [40] = assay: as above
Experimental: as §3

MDA-MB-453 [41] = assay: as above
Experimental: as §3

## CN(c1ccccc1CNc1nc(Nc2ccc3c(c2)CC(=O)N3)ncc1C(F)(F)F)S(C)(=O)=O (10000 nM)
BT-474 [1]
  normalised response: 84.8%
BT-549 [2]
  normalised response: 52.9%
CAL-120 [3]
  normalised response: 89.1%
CAL-148 [4]
  normalised response: 58.1%
CAL-51 [5]
  normalised response: 16.1%
CAL-85-1 [6]
  normalised response: 11.5%
DU-4475 [7]
  normalised response: 64.2%
HCC1143 [8]
  normalised response: 70.8%
HCC1599 [9]
  normalised response: 60.9%
HCC1937 [10]
  normalised response: 51.5%
HDQ-P1 [11]
  normalised response: 68.7%
Hs578T [12]
  normalised response: -25.4%
MCF-10A [13]
  normalised response: 7.39%
MDA-MB-231 [14]
  normalised response: -15.1%
MDA-MB-436 [15]
  normalised response: 92.8%
MDA-MB-453 [16]
  normalised response: 105%
MDA-MB-468 [17]
  normalised response: 110%
MFM-223 [18]
  normalised response: 92.2%
BT-474 [19]
  normalised response: 18.1%
BT-549 [20]
  normalised response: 6.21%
CAL-120 [21]
  normalised response: 45.7%
CAL-148 [22]
  normalised response: 73%
CAL-51 [23]
  normalised response: 5.46%
CAL-85-1 [24]
  normalised response: 4.6%
DU-4475 [25]
  normalised response: 2.4%
HCC1143 [26]
  normalised response: 17.8%
HCC1599 [27]
  normalised response: 8.88%
HCC1937 [28]
  normalised response: 34.6%
HDQ-P1 [29]
  normalised response: 16.5%
Hs578T [30]
  normalised response: 23.9%
MCF-10A [31]
  normalised response: 9.01%
MDA-MB-231 [32]
  normalised response: 4.8%
MDA-MB-436 [33]
  normalised response: 18.9%
MDA-MB-453 [34]
  normalised response: 56.4%
MDA-MB-468 [35]
  normalised response: 7.14%
MFM-223 [36]
  normalised response: 48.2%
SK-BR-3
  normalised response: 21.6%

## CS(=O)(=O)CCNCc1ccc(-c2ccc3ncnc(Nc4ccc(OCc5cccc(F)c5)c(Cl)c4)c3c2)o1 [Lapatinib] (300 nM)
CAL-148 [37]
  normalised viability: 87.1% and 91.6%
CAL-51 [38]
  normalised viability: 112% and 98.5%
CAL-85-1 [39]
  normalised viability: 89.5% and 86.2%
DU-4475 [40]
  normalised viability: 87.4% and 108%
MDA-MB-453 [41]
  normalised viability: 42.9% and 43.1%

## COC(=O)C[C@](O)(CCCC(C)(C)O)C(=O)O[C@@H]1C(OC)=C[C@]23CCCN2CCc2cc4c(cc2[C@H]13)OCO4 [Omacetaxine] (10000 nM)
BT-474 [1]
  normalised response: 75.2%
BT-549 [2]
  normalised response: 77%
CAL-120 [3]
  normalised response: 80.1%
CAL-148 [4]
  normalised response: 1.18%
CAL-51 [5]
  normalised response: 94.3%
CAL-85-1 [6]
  normalised response: -46.3%
DU-4475 [7]
  normalised response: 98.5%
HCC1143 [8]
  normalised response: 74.8%
HCC1599 [9]
  normalised response: 88.5%
HCC1937 [10]
  normalised response: 107%
HDQ-P1 [11]
  normalised response: 64.9%
Hs578T [12]
  normalised response: 33.9%
MCF-10A [13]
  normalised response: -13.6%
MDA-MB-231 [14]
  normalised response: 48.4%
MDA-MB-436 [15]
  normalised response: 32.1%
MDA-MB-453 [16]
  normalised response: 98.8%
MDA-MB-468 [17]
  normalised response: 84.9%
MFM-223 [18]
  normalised response: 30.1%
BT-474 [19]
  normalised response: 5.49%
BT-549 [20]
  normalised response: 2.75%
CAL-120 [21]
  normalised response: 21.7%
CAL-148 [22]
  normalised response: 26.6%
CAL-51 [23]
  normalised response: 6.4%
CAL-85-1 [24]
  normalised response: 1.11%
DU-4475 [25]
  normalised response: 10.2%
HCC1143 [26]
  normalised response: 10.8%
HCC1599 [27]
  normalised response: 6.51%
HCC1937 [28]
  normalised response: 17.7%
HDQ-P1 [29]
  normalised response: 21.1%
Hs578T [30]
  normalised response: 1.02%
MCF-10A [31]
  normalised response: 1.54%
MDA-MB-231 [32]
  normalised response: 2.58%
MDA-MB-436 [33]
  normalised response: 17.4%
MDA-MB-453 [34]
  normalised response: 24.6%
MDA-MB-468 [35]
  normalised response: 4.57%
MFM-223 [36]
  normalised response: 3.94%
SK-BR-3
  normalised response: 1.19%

## COc1cc(Nc2ncc(F)c(Nc3ccc4c(n3)NC(=O)C(C)(C)O4)n2)cc(OC)c1OC [Tamatinib] (10000 nM)
BT-474 [1]
  normalised response: 103%
BT-549 [2]
  normalised response: 95%
CAL-120 [3]
  normalised response: 100%
CAL-148 [4]
  normalised response: 65.1%
CAL-51 [5]
  normalised response: 83.7%
CAL-85-1 [6]
  normalised response: 64.4%
DU-4475 [7]
  normalised response: 99%
HCC1143 [8]
  normalised response: 115%
HCC1599 [9]
  normalised response: 106%
HCC1937 [10]
  normalised response: 97%
HDQ-P1 [11]
  normalised response: 111%
Hs578T [12]
  normalised response: 104%
MCF-10A [13]
  normalised response: 103%
MDA-MB-231 [14]
  normalised response: 108%
MDA-MB-436 [15]
  normalised response: 94.9%
MDA-MB-453 [16]
  normalised response: 103%
MDA-MB-468 [17]
  normalised response: -90.8%
MFM-223 [18]
  normalised response: 94.1%
BT-474 [19]
  normalised response: 95.6%
BT-549 [20]
  normalised response: 67.4%
CAL-120 [21]
  normalised response: 94.9%
CAL-148 [22]
  normalised response: 109%
CAL-51 [23]
  normalised response: 74.1%
CAL-85-1 [24]
  normalised response: 97.5%
DU-4475 [25]
  normalised response: 107%
HCC1143 [26]
  normalised response: 101%
HCC1599 [27]
  normalised response: 91.6%
HCC1937 [28]
  normalised response: 97.5%
HDQ-P1 [29]
  normalised response: 100%
Hs578T [30]
  normalised response: 102%
MCF-10A [31]
  normalised response: 107%
MDA-MB-231 [32]
  normalised response: 103%
MDA-MB-436 [33]
  normalised response: 95.7%
MDA-MB-453 [34]
  normalised response: 112%
MDA-MB-468 [35]
  normalised response: 71.2%
MFM-223 [36]
  normalised response: 110%
SK-BR-3
  normalised response: 109%
